Data from patent US20060211744A1, “3-Pyridinecarboxamide reduces nerve degeneration” (Children's Medical Center, priority 2005, published 2006).

Legend:
Format in all cases: cell-based
[1] = test system: cultured DRG neurons (transected axons); assay: Axon degeneration after transection of axons of cultured DRG neurons (Wallerian degeneration)
Method: As a first step in examining the role of NAD in Wallerian degeneration, we used an ultra-sensitive high-performance liquid chromatography (HPLC) method (Micheli and Sestini, 1997) to measure the concentration of NAD and its derivatives in degenerating axons. To do this, the acidic lysates were prepared from axonal segments collected at different time points after transecting the axons from cultured dorsal root ganglia (DRG) and resolved by reverse-phase chromatography. 2 hr after axotomy, when the transected axons were still morphologically indistinguishable from their uncut controls, NAD levels began to decrease. This NAD decrease continued over the course of degeneration, reaching about 50% at 4 hr post-axotomy, to almost undetectable levels by 6 hr after axotomy, when early morphological signs of degeneration began to develop. […] By a similar approach of alkaline extraction (Micheli and Sestini, 1997), it has been difficult for us to detect NADH in the axonal extracts, presumably due to the low abundance of NADH and the high NAD/NADH ratio reported in mammalian cells (Zhang et al., 2002, Kasischke et al., 2004, Kannurpatti et al., 2004).
To definitively determine whether preventing the local decrease in NAD levels could mediate axon protection, we employed soma-free axonal segments that have been separated from their soma as models to examine the protective effects of different pharmacological treatments. It has been shown that exogenously provided NAD, when directly added to the culture medium of DRG neurons, can be transported across the axonal membrane (Araki et al., 2004). Thus, we first examined the protective effects of different concentrations of NAD added to the culture before or after axon transection and removal of ganglia.
To further assess the local and nuclear contribution to such an NAD-dependent protection, we compared the protective effects of NAD provided at different time points. […] In this respect, our results are inconsistent with those shown by Araki et al (2004), possibly due to the different concentrations of NAD used in our studies (1-20 mM) and by Araki et al (0.1 to 1 mM).
We next attempted to explore the possible mechanisms underlying this local NAD-dependent axon protection. […] A possible explanation for this discrepancy between Araki et al (2004) and our results is the different approaches used to block Sirt1 activity. […] It is known that […], other sirturins exist and some of these proteins are localized in the cytoplasmic compartment (Onyango et al., 2002; North et al., 2003).

[2] = test system: superior sympathetic ganglia (SCGs) and other neuronal types expressing mutant Nmnat1; assay: Axon degeneration induced by over-expression of mutant Nmnat1 in cultured neurons; details: no axotomy
Source text: We next examined whether decreasing neuronal NAD levels is sufficient to induce axon degeneration in intact neurons. By sequence alignment, a conserved (T/H)XGH motif has been identified in the N-terminus of all Nmnat proteins from different species (Saridakis et al., 2001). This motif likely represents a critical active site, as a mutant enzyme with a point mutation at the last amino acid (H to A) loses its catalytic activity but retains its ability to bind the nicotinamide mononucleotide (NMN) substrate (Saridakis et al., 2001). Thus, we made a mutant Nmnat1 in which the critical histidine residue at amino acid 24 in this active site motif was substituted with alanine. Since most of the NAD in mammalian cells, except for liver and kidney cells, is synthesized by recycling degraded NAD products such as nicotinamide via the salvage pathway (Shibata et al., 1991, Rongvaux et al., 2003), over-expressing this mutant Nmnat1 would be expected to sequester the limited substrates, thus decreasing cellular NAD levels. […] As a result, neurons expressing this mutant Nmnat1 developed signs of axon degeneration in the absence of axotomy, concomitant with decreases in neuronal NAD and ATP levels.
In addition, a caspase inhibitor Z-DEVD-fink also had no effect on the axon degeneration induced by this mutant Nmnat1 expression.

[3] = test system: cultured hippocampal neurons; assay: Synaptic loss and process degeneration in cultured hippocampal neurons (dominant-negative Nmnat1)
Source text: We next attempted to examine whether decreasing NAD levels can induce similar “dying-back” axon degeneration in neurons with established synaptic connections. Such experiments might allow us to assess whether the degenerative processes in axons and other neuronal structures, including synaptic structures and dendritic processes, share similar mechanisms. To do this, we introduced both wild type and dominant negative Nmnat1 into cultured hippocampal neurons at 20 days in vitro (DIV 20), when their synaptic connections have formed and matured (Brewer et al. 1993), and examined their effects on axons as well as dendrites and synapses. As a conventional approach to visualize these neuronal structures, we also co-infected the hippocampal neurons with HSV expressing YFP. […] Moreover, neuronal NAD levels declined from 24-48 hr post-infection with viruses expressing dominant-negative Nmnat1 but not wild type Nmnat1 or YFP. Thus, we decided to focus our analysis on the first 60 hours post-infection.
To monitor changes in synaptic structures, we co-infected DIV20 neurons with HSV expressing YFP and wild type or the mutant Nmnat1, and quantified both spine density and the length and branching of axons and dendrites. As the density of dendritic spines has been considered a reliable indicator for synapse number (reviewed by Hering and Sheng, 2001), we performed high-resolution YFP imaging in neurons co-expressing YFP and Nmnat1 proteins at the indicated time points post-infection to measure the spine densities in these co-infected neurons. Dendrite length and branching patterns were analyzed using Sholl's method of regularly spaced concentric circles centered on the neuronal soma (Sholl, 1953). […]
In the experiments described above, we also performed immunostaining with antibodies against the presynaptic marker bassoon, and found a decrease of positively-stained synaptic structures. However, due to the complex morphology of the axons that makes it extremely difficult to quantify the axonal length in DIV20 hippocampal neurons, we […]. […]

## NC(=O)c1ccc[n+]([C@@H]2O[C@H](COP(=O)([O-])OP(=O)(O)OC[C@H]3O[C@@H](n4cnc5c(N)ncnc54)[C@H](O)[C@@H]3O)[C@@H](O)[C@H]2O)c1 [NAD, nicotinamide adenine dinucleotide]
[1]; added to culture medium of DRG neurons
  concentrations resulting in significant protective effects on axon degeneration: 1 to 20 mM

## COC(=O)CC[C@H](NC(=O)[C@H](CC(=O)OC)NC(=O)OCc1ccccc1)C(=O)N[C@H](C(=O)N[C@@H](CC(=O)OC)C(=O)CF)C(C)C [Z-DEVD-fink]
[2]
  axon degeneration induced by mutant Nmnat1 expression: no effect

## Oc1ccc(C=Cc2cc(O)cc(O)c2)cc1 [resveratrol]
[1]; a range of concentrations
  extent of axon degeneration: failed to observe any significant change
[3]; DIV20 hippocampal neurons
  changes (spine density, dendrites) induced by dominant-negative Nmnat1: did not affect the changes

## CC(NC(=O)c1ccccc1/N=C/c1c(O)ccc2ccccc12)c1ccccc1 (stereo not drawn) [sirtinol]
[1]; sirturin inhibitors, nicotinamide at 50 μM
  attenuation of the protective effect of Nmnat1 or NAD: did not attenuate the protective effect
[3]; from 50 to 100 μM, up to 72 hr
  dendritic spine quantity or structure, compound alone: did not induce significant changes
